In ChEMBL document CHEMBL1149230, “Long chain amines and long chain ammonium salts as novel inhibitors of dynamin GTPase activity” (Bioorg Med Chem Lett, 2004) one finds Concentration, Activity and inhibition data, which are given here for one compound.

Assay [1] is filed under the species Ovis aries. As to the kind of experiment: Compound was tested for its ability to inhibit Dynamin-1 GTPase activity of sheep brain; Increased activity. It is filed as tissue-based.
The species entered for assay [2] is Ovis aries. The assay is described as follows: Compound was tested for its ability to inhibit Dynamin-1 GTPase activity of sheep brain at 30 uM; NE=No effect.
For assay [3], the species on record is Ovis aries. The assay is described as follows: Concentration required against Dynamin-1 GTPase activity of sheep brain at 3 uM. It counts as tissue-based.

Active and inactive are the calls of the source. No cut-off for these calls is given here.

As to `CCCC/C=C\C/C=C\C/C=C\C/C=C\CCCC(=O)OCC(O)CO` (stereo not drawn), the Concentration in the assay listed under Ovis aries [1] was 300 µM. Further, in the assay listed under Ovis aries [2], the result was inactive. Also, the inhibition (as a rule, the change of the read-out against control, counted positive when it falls) in the assay listed under Ovis aries [3] amounted to 70%.
